Usually DC50 stands for the concentration at which degradation of the target reaches its halfway point. Lower therefore signals degradation at low concentration. For orientation: Emax means the maximal effect, on the per cent scale that the assay sets.

The source of these data is patent US12559492B2, “BRAF degraders” (C4 Therapeutics, Inc., priority 2020, dated 2026).

The assay addresses BRAF^V600E protein (Homo sapiens, UniProt P15056, V600E). Kind of assay: HiBiT cellular BRAF V600E degradation assay. Format: cell-based. The settings on record: 24 h incubation; for DC50: A375.10 cells (HiBiT tag knocked in at N-terminal of BRAF V600E), concentration at which 50% of total cellular BRAF V600E is degraded; for Emax: read-out: HiBit 24 h Emax.
[1] abbreviates: A375.10 cells, Emax = amount of residual protein remaining in the cell after compound treatment.

SMILES strings stand for the structures.

Chain of BRAF^V600E protein (P15056 whole entry V600E): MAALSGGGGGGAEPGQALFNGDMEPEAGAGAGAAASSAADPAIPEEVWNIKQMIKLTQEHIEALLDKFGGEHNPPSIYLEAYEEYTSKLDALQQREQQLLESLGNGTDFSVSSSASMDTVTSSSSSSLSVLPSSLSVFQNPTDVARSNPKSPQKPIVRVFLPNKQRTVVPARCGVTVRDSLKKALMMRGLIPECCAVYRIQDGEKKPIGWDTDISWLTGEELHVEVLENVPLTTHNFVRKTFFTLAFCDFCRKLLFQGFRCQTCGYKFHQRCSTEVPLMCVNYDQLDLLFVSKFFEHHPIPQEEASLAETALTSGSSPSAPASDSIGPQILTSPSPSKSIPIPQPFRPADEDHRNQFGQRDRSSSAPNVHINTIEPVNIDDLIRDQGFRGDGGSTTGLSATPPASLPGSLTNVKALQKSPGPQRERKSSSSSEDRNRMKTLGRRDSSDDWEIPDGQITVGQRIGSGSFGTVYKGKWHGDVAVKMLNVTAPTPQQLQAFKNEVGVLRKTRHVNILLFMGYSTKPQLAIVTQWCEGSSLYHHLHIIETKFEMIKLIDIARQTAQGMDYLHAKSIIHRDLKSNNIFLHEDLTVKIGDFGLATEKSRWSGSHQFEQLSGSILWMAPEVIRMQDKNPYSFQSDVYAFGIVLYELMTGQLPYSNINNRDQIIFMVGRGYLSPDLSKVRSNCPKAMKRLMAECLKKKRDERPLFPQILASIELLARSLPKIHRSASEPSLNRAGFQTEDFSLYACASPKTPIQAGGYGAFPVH

`CCN(C)S(=O)(=O)Nc1ccc(F)c(C(=O)c2c[nH]c3ncc(-c4cnc(N5CCN(C(=O)CN6CCN(c7ccc(NC8CCC(=O)NC8=O)cc7)CC6)CC5)nc4)cc23)c1F` (stereo not drawn) [Example 19, 5-[2-[4-[2-[4-[4-[(2,6-dioxo-3-piperidyl)amino]phenyl]piperazin-1-yl]acetyl]piperazin-1-yl]pyrimidin-5-yl]-3-[3-[[ethyl(methyl)sulfamoyl]amino]-2,6-difluoro-benzoyl]-1H-pyrrolo[2,3-b]pyridine] registered a DC50 of 8.57 nM. In addition, under setting [1], the “HiBit 24 h Emax” value was found to be 11.26%.
The molecule `CCN(C)S(=O)(=O)Nc1ccc(F)c(C(=O)c2c[nH]c3ncc(-c4ccc(N5CCN(C(=O)CC6(O)CCN(c7ccc(NC8CCC(=O)NC8=O)cc7F)CC6)CC5)cc4)cc23)c1F` (stereo not drawn) [Example 89, 5-[4-[4-[2-[1-[4-[(2,6-dioxo-3-piperidyl)amino]-2-fluoro-phenyl]-4-hydroxy-4-piperidyl]acetyl]piperazin-1-yl]phenyl]-3-[3-[[ethyl(methyl)sulfamoyl]amino]-2,6-difluoro-benzoyl]-1H-pyrrolo[2,3-b]pyridine] returned a DC50 of 1.4 nM. Also, under setting [1], the Emax was 8.6%.
`CCN(C)S(=O)(=O)Nc1cccc(C(=O)c2c[nH]c3ncc(-c4ccc(N5CCN(C(=O)CC6CCN(c7ccc(NC8CCC(=O)NC8=O)cc7F)CC6)CC5)nc4)cc23)c1F` (stereo not drawn) [Example 111, 5-[6-[4-[2-[1-[4-[(2,6-dioxo-3-piperidyl)amino]-2-fluoro-phenyl]-4-piperidyl]acetyl]piperazin-1-yl]-3-pyridyl]-3-[3-[[ethyl(methyl)sulfamoyl]amino]-2-fluoro-benzoyl]-1H-pyrrolo[2,3-b]pyridine] registered a DC50 of 9.66 nM. For the same molecule, the Emax under setting [1] was determined as 15.6%.
In turn, `CC(C)S(=O)(=O)Nc1ccc(F)c(C(=O)c2c[nH]c3ncc(-c4cnc(N5CCN(C(=O)CN6CCC(c7ccc(NC8CCC(=O)NC8=O)cc7F)CC6)CC5)nc4)cc23)c1F` (stereo not drawn) [Example 6, N-[3-[5-[2-[4-[2-[4-[4-[(2,6-dioxo-3-piperidyl)amino]-2-fluoro-phenyl]-1-piperidyl]acetyl]piperazin-1-yl]pyrimidin-5-yl]-1H-pyrrolo[2,3-b]pyridine-3-carbonyl]-2,4-difluoro-phenyl]propane-2-sulfonamide] showed a DC50 of 5.59 nM. Under setting [1], the Emax turned out to be 7.96%.
The like results for `CCN(C)S(=O)(=O)Nc1ccc(F)c(C(=O)c2c[nH]c3ncc(-c4cnc(N5CCC(N(C)C(=O)CN6CCC(c7ccc(NC8CCC(=O)NC8=O)cn7)CC6)CC5)nc4)cc23)c1F` (stereo not drawn) [Example A92, 2-[4-[5-[(2,6-Dioxopiperidin-3-yl)amino]pyridin-2-yl]piperidin-1-yl]-N-[1-[5-[3-[3-[[ethyl(methyl)sulfamoyl]amino]-2,6-difluorobenzoyl]-1H-pyrrolo[2,3-b]pyridin-5-yl]pyrimidin-2-yl]piperidin-4-yl]-N-methylacetamide; formic acid] were, in that order, 8 nM and 7%.
`CCN(C)S(=O)(=O)Nc1cccc(C(=O)c2c[nH]c3ncc(-c4cnc(N5CCN(C(=O)CC6CCN(c7ccc(NC8CCC(=O)NC8=O)cc7C(F)(F)F)CC6)CC5)nc4)cc23)c1F` (stereo not drawn) [Example 106, 5-[2-[4-[2-[1-[4-[(2,6-dioxo-3-piperidyl)amino]-2-(trifluoromethyl)phenyl]-4-piperidyl]acetyl]piperazin-1-yl]pyrimidin-5-yl]-3-[3-[[ethyl(methyl)sulfamoyl]amino]-2-fluoro-benzoyl]-1H-pyrrolo[2,3-b]pyridine] returned a DC50 of 34.8 nM. Under setting [1], the maximal effect (Emax) was 11.5%.
The molecule `CCN(C)S(=O)(=O)Nc1ccc(F)c(C(=O)c2c[nH]c3ncc(-c4cnc(N5CCN(C(=O)CC6(O)CCN(c7ccc(NC8CCC(=O)NC8=O)cc7F)CC6)CC5)c(C#N)c4)cc23)c1F` (stereo not drawn) [Example 186, 5-[5-cyano-6-[4-[2-[1-[4-[(2,6-dioxo-3-piperidyl)amino]-2-fluoro-phenyl]-4-hydroxy-4-piperidyl]acetyl]piperazin-1-yl]-3-pyridyl]-3-[3-[[ethyl(methyl)sulfamoyl]amino]-2,6-difluoro-benzoyl]-1H-pyrrolo[2,3-b]pyridine] gave a DC50 of 5.45 nM. For the same molecule, the Emax under setting [1] amounted to 8.35%.
The like results for `CCN(C)S(=O)(=O)Nc1ccc(F)c(C(=O)c2c[nH]c3ncc(-c4ccc(N5CCC(NC(=O)CN6CCC(c7ccc(NC8CCC(=O)NC8=O)cn7)CC6)CC5)nc4)cc23)c1F` (stereo not drawn) [Example A57, 2-[4-[5-[(2,6-dioxopiperidin-3-yl)amino]pyridin-2-yl]piperidin-1-yl]-N-[1-[5-[3-[3-[[ethyl(methyl)sulfamoyl]amino]-2,6-difluorobenzoyl]-1H-pyrrolo[2,3-b]pyridin-5-yl]pyridin-2-yl]piperidin-4-yl]acetamide;formic acid] were, in that order, 33 nM and 13%.
`CCN(C)S(=O)(=O)Nc1ccc(F)c(C(=O)c2c[nH]c3ncc(-c4cnc(N5CCN(C(=O)[C@H]6C[C@@H](N7CCC(c8ccc(NC9CCC(=O)NC9=O)cc8)CC7)C6)CC5)nc4)cc23)c1F` (stereo partly drawn) [Example A78, 5-[2-[4-[3-[4-[4-[(2,6-Dioxopiperidin-3-yl)amino]phenyl]piperidin-1-yl]cyclobutanecarbonyl]piperazin-1-yl]pyrimidin-5-yl]-3-[3-[[ethyl(methyl)sulfamoyl]amino]-2,6-difluorobenzoyl]-1H-pyrrolo[2,3-b]pyridine] returned a 50% degradation concentration (DC50) of 8.93 nM. Further, the Emax under setting [1] was determined as 15.4%.
In turn, `O=C1CCC(Nc2ccc(C3CCN(CC(=O)N4CCN(c5ccc(-c6cnc7[nH]cc(C(=O)c8c(F)ccc(NS(=O)(=O)C9CCCCC9)c8F)c7c6)cn5)CC4)CC3)cc2)C(=O)N1` (stereo not drawn) [Example A33, N-[3-[5-[6-[4-[2-[4-[4-[(2,6-Dioxopiperidin-3-yl)amino]phenyl]piperidin-1-yl]acetyl]piperazin-1-yl]pyridin-3-yl]-1H-pyrrolo[2,3-b]pyridine-3-carbonyl]-2,4-difluorophenyl]cyclohexanesulfonamide] gave a DC50 of 34 nM. Also, under setting [1], the Emax is 13%.
Taken in the same sequence, the figures for `CCN(C)S(=O)(=O)Nc1ccc(F)c(C(=O)c2c[nH]c3ncc(-c4cnc(N5CC6(CC(C7CCN(c8ccc(NC9CCC(=O)NC9=O)cc8F)CC7)C6)C5)nc4)cc23)c1F` (stereo not drawn) [Example 199, 5-[2-[6-[1-[4-[(2,6-dioxo-3-piperidyl)amino]-2-fluoro-phenyl]-4-piperidyl]-2-azaspiro[3.3]heptan-2-yl]pyrimidin-5-yl]-3-[3-[[ethyl(methyl)sulfamoyl]amino]-2,6-difluoro-benzoyl]-1H-pyrrolo[2,3-b]pyridine] were 28.3 nM and 7.17%.
As to `CCN(C)S(=O)(=O)Nc1ccc(F)c(C(=O)c2c[nH]c3ncc(-c4cnc(N5CC6(CC(CC(=O)N7CCC(c8ccc(NC9CCC(=O)NC9=O)cc8)CC7)C6)C5)nc4)cc23)c1F` (stereo not drawn) [Example 133, 5-[2-[6-[2-[4-[4-[(2,6-dioxo-3-piperidyl)amino]phenyl]-1-piperidyl]-2-oxo-ethyl]-2-azaspiro[3.3]heptan-2-yl]pyrimidin-5-yl]-3-[3-[[ethyl(methyl)sulfamoyl]amino]-2,6-difluoro-benzoyl]-1H-pyrrolo[2,3-b]pyridine], the DC50 came out at 14.7 nM. Moreover, under setting [1], the maximum response (Emax) came to 11.4%.
